Reference: patent US9346778B2, “Carbofluorescein lactone ion indicators and their applications” (AAT Bioquest, Inc., priority 2007, dated 2016)
Entries after “also recorded” stand apart in the source; their conditions may differ.

Tests used:
[1] = tested on: CHO cells; test: Cell-induced absorption spectral shift of indicator AM esters, absence vs presence of CHO cells; format: cell-based; conditions: for Cell-Induced Excitation Wavelength Shift (nm): absence vs presence of CHO cells
From the text: (§1) FIG. 7. The cell-induced absorption spectral shift comparison of Fluo-3 AM and Compound 16. The absorption spectra are normalized at their maximum absorption peak. Solid lines represent the absorption spectra of Compound 16 in the absence of CHO cells (left) and in the presence of CHO cells (right) respectively. Dot lines represent the absorption spectra of Fluo-3 AM in the absence of CHO cells (left) and in the presence of CHO cells (right) respectively.
as §1, with “8.” for “7.”, “Fluo-4” for “Fluo-3”, “85.” for “16.”, “85” for “16”
Fluo-3 AM and Fluo-4 AM are predominantly used for monitoring intracellular calcium signal. However, Fluo-3 AM, Fluo-4 AM and their cell-hydrolyzed products (Fluo-3 and Fluo-4) can be simultaneously excited by the same excitation source (see FIGS. 7 and 8), causing high assay background. The present application is directed to a family of fluorescent dyes that are useful for preparing fluorescent metal ion indicators. The indicators include a carbofluorescein lactone fluorophore that is incorporated with an ionophore, and are useful for the detection, discrimination and quantification of metal cations.
In one aspect of the invention, the disclosed calcium indicators have the minimal assay background in their masked form since their non-hydrolyzed AM esters cannot be excited in the range of visible wavelengths. […] The fluorescence outside cells generates the detrimental assay background. It is evident that the calcium indicators of the invention (e.g., Compound 16) have unexpected spectral properties that enable more sensitive detection of calcium in cells compared to the existing fluorescein-based calcium indicators (such as Fluo-3 AM).
It is evident that the calcium indicators of the invention (e.g., Compound 85) have unexpected spectral properties that enable more sensitive detection of calcium in cells compared to the existing fluorescein-based calcium indicators (such as Fluo-4 AM).

[2] = Spectral property comparison (excitation and emission wavelength) of indicator acids; format: physicochemical
From the text: The red-shift excitation and emission wavelengths provide a great advantage for the use of current invention in the high throughput screening of new drug candidates since there are many fluorescent compounds of short wavelength in the screening compound libraries. Fluo-3 AM and Fluo-4 AM are currently used in the high throughput screening of new drug candidates, but their short wavelength overlap with the fluorescence of some fluorescent compounds in the screening compound libraries, causing severe interference.

[3] = tested on: CHO cells stably transfected with muscarinic receptor 1; test: Calcium flux assay in cells loaded with indicator AM ester, ATP stimulation, microplate reader or imaging; format: cell-based; conditions: compared with Fluo-4 AM
Protocol: In yet another aspect of the invention, the fluorescent ion indicators are used in a method to measure calcium flux. Cells (e.g., CHO cells) stably transfected with muscarinic receptor 1 are plated—e.g., at 60,000 cells per 100 μl per well in F12 with 5% FBS and 1% glutamine in a 96-well black wall/clear bottom Costar plate—and incubated (e.g., in 5% CO2 at 37° C. overnight). The growth medium is removed and the cells are incubated with a fluorescent ion indicator (e.g., with 100 μl/well of 1-8 μM Fluo-4 AM or Compound 85 in Hanks and HEPES buffer for 1 hour at room temperature) with or without probenecid. […]
Calcium flux assays are preferred methods in drug discovery for screening G protein coupled receptors (GPCR). The fluorescent indicators of the invention provide a homogeneous fluorescence-based assay for detecting the intracellular calcium mobilization. […] When the sample cells are stimulated with screening compounds, the receptor triggers a release of intracellular calcium, which then greatly increases the fluorescence of the intracellular indicators. The combination of long wavelength fluorescence properties, high sensitivity, and often a >100 times increase in fluorescence upon binding with calcium makes the disclosed indicators well-suited for measurement of cellular calcium. […]

[4] = Calcium response of indicator measured in fluorescence excitation/emission in PBS buffer; format: binding; conditions: 5 μM in PBS buffer, excited at 555 nm
Protocol: FIG. 5. Calcium responses of Compound 79 (5 μM) measured in fluorescence excitation in PBS buffer solution. The calcium concentrations are indicated in the graph in the unit of μM.
FIG. 6. Calcium responses of Compound 79 (5 μM) measured in fluorescence emission in PBS buffer solution. The calcium concentrations are indicated in the graph in the unit of μM.

Residual absorption of dye AM at the maximum excitation of dye acid [1] [%]	Cell-Induced Excitation Wavelength Shift (nm) [1] [nm]	Emission Wavelength (nm) [2] [nm]	Excitation Wavelength (nm) [2] [nm]	Structure (SMILES)	other results
7.6	36			CC(=O)OCOC(=O)CN(CC(=O)OCOC(C)=O)c1ccc(C)cc1OCCOc1cc(-c2c3cc(Cl)c(=O)cc-3oc3cc(OCOC(C)=O)c(Cl)cc23)ccc1N(CC(=O)OCOC(C)=O)CC(=O)OCOC(C)=O [Fluo-3 AM, reference compound]	absorption of masked AM form at excitation wavelength ([1]; at 488 nm): substantial absorption
		584	558	Cc1ccc(N(CC(=O)O)CC(=O)O)c(OCCOc2cc(C3=C4C=C(Cl)C(=O)C=C4C(C)(C)c4cc(O)c(Cl)cc43)c(C(=O)O)cc2N(CC(=O)O)CC(=O)O)c1 [Compound 11]	
0	277			CC(=O)OCOC(=O)CN(CC(=O)OCOC(C)=O)c1ccc(C)cc1OCCOc1cc2c(cc1N(CC(=O)OCOC(C)=O)CC(=O)OCOC(C)=O)C(=O)OC21c2cc(F)c(OC(C)=O)cc2C(C)(C)c2cc(OC(C)=O)c(F)cc21 [Compound 85]	fluorescence intensity enhancement upon calcium stimulation ([3]; absence of probenecid): much greater than that of Fluo-4 AM; also recorded: better fluorescence intensity enhancement upon calcium stimulation than that of Fluo-4 AM; loading into cells [3]: load into cells much better than Fluo-4 AM; absorption of masked AM form at excitation wavelength ([1]; at 555 nm): essentially no absorption
		526	504	Cc1ccc(N(CC(=O)O)CC(=O)O)c(OCCOc2cc(-c3c4cc(Cl)c(=O)cc-4oc4cc(O)c(Cl)cc34)ccc2N(CC(=O)O)CC(=O)O)c1 [Fluo-3, reference compound]	
0	278			CC(=O)OCOC(=O)CN(CC(=O)OCOC(C)=O)c1ccc(C)cc1OCCOc1cc2c(cc1N(CC(=O)OCOC(C)=O)CC(=O)OCOC(C)=O)C(=O)OC21c2cc(Cl)c(OC(C)=O)cc2C(C)(C)c2cc(OC(C)=O)c(Cl)cc21 [Compound 16]	absorption of masked AM form at excitation wavelength ([1]; at 555 nm): essentially no absorption
		582	554	Cc1ccc(N(CC(=O)O)CC(=O)O)c(OCCOc2cc(C3=C4C=C(F)C(=O)C=C4C(C)(C)c4cc(O)c(F)cc43)c(C(=O)O)cc2N(CC(=O)O)CC(=O)O)c1 [Compound 79]	calcium binding [4]: binds calcium
		515	493	Cc1ccc(N(CC(=O)O)CC(=O)O)c(OCCOc2cc(-c3c4cc(F)c(=O)cc-4oc4cc(O)c(F)cc34)ccc2N(CC(=O)O)CC(=O)O)c1 [Fluo-4, reference compound]	
7.8	38			CC(=O)OCOC(=O)CN(CC(=O)OCOC(C)=O)c1ccc(C)cc1OCCOc1cc(-c2c3cc(F)c(=O)cc-3oc3cc(OCOC(C)=O)c(F)cc23)ccc1N(CC(=O)OCOC(C)=O)CC(=O)OCOC(C)=O [Fluo-4 AM, reference compound]	absorption of masked AM form at excitation wavelength ([1]; at 488 nm): substantial absorption
